# Measurements reported in PubChem BioAssay AID1341 (NMMLSC, 2008).
# Several values for one entry are separate records, joined by “and”; a condition that tells them apart may be missing. Equal values may be shown once.
# Molecular target: GTPase HRas (Homo sapiens) (UniProt P01112)
# Experiment: activated Ras mutant GTP binding inhibitors, dose response, biochemical, multiplex bead flow cytometry (AID 1341);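 also: GST-tagged constitutively activated Ras mutant immobilized on beads and multiplexed with other GTPases; potency for blocking fluorescent GTP binding to Ras so compounds act as competitors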
# Settings: bead-based flow cytometry, Bodipy-FL-GTP binding
row,SMILES,EC50
1,COc1ccc(C(=O)c2c(O)cc(-c3ccc(OC)cc3)oc2=O)cc1,5960 nM
2,Cc1cc(NC(=O)CSc2nc(-c3ccccc3)c(C#N)c(=O)[nH]2)no1,11000 nM
3,CC1(C)Cc2c(sc(NC(=S)NC(=O)c3ccccc3)c2C(=O)O)CO1,144 nM and 145 nM

# More lines, now with the values ahead:
row,EC50,SMILES
1,2460 nM,CC(=O)c1c(C)[nH]c(C(=O)N2CCc3ccccc3C2)c1C
2,1970 nM,N#Cc1c(-c2ccccc2)nc(SCC(=O)Nc2ccccc2)[nH]c1=O
3,430 nM,Cc1cc(C(=O)O)sc1CNCc1ccccc1Cl
4,195 nM,Cc1ccc(C)c(OCCn2cc(C(=O)O)c3ccccc32)c1
5,634 nM,CC(C)Cc1csc(NC(=O)c2ccccc2Cl)c1C(=O)O
